This is an account of results in patent publication US20060178389A1, “Use of siramesine in the treatment of cancer” (priority 2003, published 2006).

One data set relates to WEHI-R4 cells. The protocol:
WEHI-R4 cells (5×10^6) were implanted subcutaneously in the back of immunocompetent female BALB/c mice. Siramesine treatment commenced two days prior to tumor implant. Mice were divided into groups (5-9/group) and administered peroral 200 μL 1) vehicle (0.5% methylcellulose 15 in 0.9% NaCl solution), 2) 100 mg/kg/day Siramesine in suspension (in 0.5% methylcellulose 15 in 0.9% NaCl solution) 7 days per week. For combinational in vivo studies, 50 mg/kg siramesine was administered 7 days/week in combination with a single dose of etoposide (i.p.) up to 30 mg/kg (administered on day one). Tumor volumes were estimated by the use of a caliper. The effect of the drugs on the tumor growth was monitored over 14-21 days before the mice were sacrificed.

A further data set has as its system p53. As to the kind of experiment: p53 activation. It is filed as cell-based.
Another data set concerns lysosomal cathepsins. As to the kind of experiment: Release of lysosomal cathepsins (immunostaining of cathepsin B and L, purified lysosomes, cathepsin inhibitors). The data set is classed as cell-based. The source says:
(§1) The following protease inhibitors were used: zVAD-fmk, DEVD-fmk (Bachem Bubendorf, Switzerland), DEVD-CHO (Neosystems, Strasbourg, France), LEHD-CHO, zFA-fmk (Enzyme System Products, Livermore, Calif.), CA-074-Me (Peptides International, Louisville, Ky.), APC1138 (Celera Applied Biosystems, Foster City, Calif., USA),. Pepstatin A, PD150606, and calpain inhibitor I (CI) (Calbiochem, La Jolla, Calif.), TPCK (Boehringer Mannheim), pefabloc (AEBSF) (Roche Diagnostics, DK).
To measure cytosolic cystein cathepsin enzyme activity, subconfluent cells seeded in 24-well plates were treated with an extraction buffer (250 mM sucrose, 20 mM HEPES, 10 mM KCl, 1.5 mM MgCl2, 1 mM EDTA, 1 mM EGTA, 1 mM pefablock; pH 7.5) containing 20 μg/mL digitonin for 12-15 min on ice. To measure total cellular cystein cathepsin enzyme activity, cells were treated with the above extraction buffer containing 200 μg/mL digitonin for 12-15 min on ice. […]
Cells were exposed to the lysomotropic weak base and metachromatic fluorochrome acridine orange (AO, Molecular Probes) that accumulates in acidic compartments. […] Cells were either evaluated using an inverted Olympus microscope IX-70 or detached from the substratum and analyzed by flow cytometry using a FACSort (Becton Dickinson, San Jose, Calif.) with an argon ion laser with an output wavelength of 488 nm and analyzed using CELLQuest software. […]

For data set [1], the system named is N1H3T3 murine fibroblasts transduced with v-Ha-ras or c-src. As to the kind of experiment: Sensitivity of fibroblasts towards Siramesine after oncogenic transformation. The settings on record: upon oncogenic transformation by ras or src. It is filed as cell-based. The source says: (§2) Murine fibrosarcoma cells WEHI-S, Wn902, Wn912, and WEHI-R4 are normal, vector control, Hsp70 overexpressing, and hTNF resistant cells, respectively. Other cell types tested include: Human breast cancer cell types MCF7-S1 and MDA-MB-468, and non-tumorigekic immortalized breast epithelial cells HBL100. MCF7 casp3.1 and −3.3 and neo2 are single cell clones expressing caspase3 and vector. MCF7 pCEP, -Bcl2 WT, -Bcl2 NT, -Bcl2 Acta, and -Bcl2 Cb5 are single cell clones expressing vector, wildtype Bcl2, cytoplasma localized Bcl2, mitochondria localized Bcl2, and ER localized Bcl2 (Maria Høyer Hansen, Apoptosis Laboratory, Danish Cancer Society). Human neuroblastoma cell line SK-N-MC cells (ATCC, USA). […]
(§3) Cell viability was measured using the MTT reduction assay. Conversion of the tetrazolium salt 3-(4,5-dimethylthiazole-2-yl)-2,5-diphenyltetrasodiumbromide (MTT, SIGMA-Aldrich) into the blue-colored formazan product was assessed spectrophotometrically by absorption at 570 nm using a Versamax microplate reader (Molecular Devices). The survival rate was determined as the percentage of untreated cells or inhibitor-treated cells: Cells were seeded into 96-well plate, containing 200 μL media, and treated the following day with drugs. The effect on cell viability was assessed 24-60 h after drug addition by removal of 100 μL media and addition of 25 μL MTT solution (1 mg/mL in PBS, sterile filtered). […]

Data set [2] concerns WEHI-S cells. As to the kind of experiment: Induction of apoptosis compared with reference sigma ligands, WEHI-S. It is filed as cell-based, murine. As to conditions: versus Haloperidol and pentazocine.
Source text: as §2, §3

The subject of a further data set is effector caspase. As to the kind of experiment: Mode of cell death: nuclear morphology, caspase inhibitors, caspase 3/7-like activity. The data set is classed as cell-based.
Source text: as §1
The cell death mode was assessed by the type of nuclear condensation and performed by hoechst staining (cell permeable Hoechst 33342, SIGMA-Aldrich) of drug-treated cells. Non cell permeable Sytox Green (Molecular Probes) was used to assay loss of membrane integrity and compared with nuclear morphological changes observed with Hoechst. Cells were incubated with 10.000× dilution of 25 mg/mL hoechst and /or 10.000× dilution of 5 mM sytox green for 5 min at 37° C. where after type of nuclear condensation and possible co-stain was analyzed using an inverted Olympus microscope IX-70.
To measure cytosolic cystein cathepsin enzyme activity, subconfluent cells seeded in 24-well plates were treated with an extraction buffer (250 mM sucrose, 20 mM HEPES, 10 mM KCl, 1.5 mM MgCl2, 1 mM EDTA, 1 mM EGTA, 1 mM pefablock; pH 7.5) containing 20 μg/mL digitonin for 12-15 min on ice. […]

The subject of data set [3] is cultured tumor cell lines originating from tumors of the prostate, breast and cervix. As to the kind of experiment: Induction of programmed cell death in cultured tumor cell lines (MTT / LDH release). As to conditions: dose dependent, tumor cell lines of various origins incl. prostate. The data set is classed as cell-based, human.
Source text: as §2, §3

In data set [4] the test system is Tumor cells protected by ectopic expression of Bcl-2. As to the kind of experiment: Killing of tumor cells with ectopic expression of Bcl-2. The data set is classed as cell-based. The settings on record: cells protected against most other anti-cancer drugs by ectopic expression of Bcl-2.
Source text: as §2, §3

A further data set concerns MCF7 cells. As to the kind of experiment: Induction of apoptosis compared with reference sigma ligands, MCF7. The settings on record: versus Haloperidol and pentazocine. It is filed as cell-based, human.
Source text: as §2, §3

The subject of data set [5] is WEHI-S cells. As to the kind of experiment: Induction of cell death in combination with chemotherapeutics. As to conditions: together with etoposide, doxorubicin, staurosporin, vincristine and tamoxifen. The data set is classed as cell-based, murine.
Source text: as §2, §3

For the molecule `Fc1ccc(-n2cc(CCCCN3CCC4(CC3)OCc3ccccc34)c3ccccc32)cc1` [Siramesine, 1′-[4-[1-(4-fluorophenyl)-1H-indole-3-yl]-1-butyl]-spiro[isobenzofuran-1(3H)4′-piperidine]], the “effect on tumor growth” value with WEHI-R4 cells (BALB/c mice, siramesine alone, peroral) is on record as “anti-tumorigenic effect”. Besides, the “effect on tumor growth, combination with etoposide” value with WEHI-R4 cells (BALB/c mice, siramesine and etoposide versus groups single-treated) is “combinational effect”. Besides, the tolerability in vivo entry in the data set with WEHI-R4 cells (mouse, in vivo) is recorded as “well tolerated”. The “activation of p53” value with p53 is recorded as “does not activate p53”. In the data set on lysosomal cathepsins, the “effect of pharmacological cathepsin inhibitors on siramesine-induced death” value is “can attenuate the death”. For the same molecule, the “release of lysosomal cathepsins into the cytosol” value in the data set with lysosomal cathepsins (immunohistochemical staining of cathepsin B and L, in vitro release from purified lysosomes) was “release of lysosomal cathepsins into the cytosol seems to be involved in the execution of the death process”. For the same molecule, the “sensitivity of cells towards Siramesine” value in data set [1] is “increased”. Further, the “potency as inducer of apoptosis versus reference sigma ligands” value in the data set on WEHI-S cells [2] was “significantly more potent inducer of apoptosis than Haloperidol and pentazocine”; in the data set with MCF7 cells, “significantly more potent inducer of apoptosis than Haloperidol and pentazocine”. Further, the effector caspase activation result in the data set with effector caspase was “absence of effector caspase activation”. In addition, in the data set on effector caspase (based on nuclear morphological changes and absence of protection by pharmacological caspase inhibitors), the mode of death result is recorded as “caspase-independent”. Further, the “induction of programmed cell death” value in data set [3] is “effectively induces programmed cell death”. For the same molecule, the “killing of Bcl-2 expressing tumor cells” value in data set [4] is listed as “effectively killed”. In the data set with WEHI-S cells [5], the “interaction with chemotherapeutics in induction of cell death” value is “synergistic”.
